Reference: patent US5703056A, “Non-invasive imaging of gene transfer” (priority 1995, dated 1997)
Where two headings read alike, the source gives them in different places.

Columns and labels:
physchem = type: physicochemical; settings: octanol/water
Text: It is known that brain capillary permeability for many compounds is related to their octanol/water partition coefficient (P) and molecular weight. [[…]. Med. […] [Dischino, […]., and […]. Nucl. […] […]. Drug transfer across the blood brain barrier. In: Topics in Pharmaceutical Sciences. Ed.: Breimer, D. D., and […]. […] […]., and Rapoport, S. I. In: Handbook of Physiology. The Cardiovascular System. Microcirculation. Bethesda, Md.: Am. Physiol. Soc., sect. 2, Vol. IV, […]. 969-1000, 1984; […]. In: Implications of Blood-Brain Barrier and Its Manipulation. Basic Science Aspects. Ed. by Neuwelt, E., New York: Plenum, Vol. 1, […]. 132-55, 1988] […] [Xu, […]., Knaus, E. E., and Wiebe, L. I. In: Advances in Radiopharmacology. […]., Snowdon, G. M., Boniface, G. R., Univ. of Wollongong Printing Service, Wollongong, Australia, pp. 283-298, 1990] […] […]).

[1] = Calculated permeability surface area product (PS) of the cerebral capillaries; set-up: unit not given here; settings: for PS*: calculated from measured log P and MW: log(PS)=5.2+log(P·Dm); for PS+: calculated from published log P and MW: log(PS)=5.2+log(P·Dm)
Text: Passage of the nucleosides across the blood brain barrier (BBB) is an important factor to consider in the design of radiolabelled 2'-fluoro-nucleoside analogues for imaging HSV1-TK expression in the brain. […] It is known that brain capillary permeability for many compounds is related to their octanol/water partition coefficient (P) and molecular weight. [Levin, V. N. J. Med. Chem., 23: 682-4, 1980] Several authors have described a relationship between the brain capillary permeability and log P or log P·Dm, where Dm is a measure of diffusibility. […] [Dischino, D. D., Welch, M. J., Kilbourn, M. N., and Raichle, M. E., J. Nucl. Med., 24: 1030-8, 1983] […] Fenstermacher, J. D. Drug transfer across the blood brain barrier. In: Topics in Pharmaceutical Sciences. Ed.: Breimer, D. D., and Speiser, P. Amsterdam: Elsevier, pp. 143-54, 1983; Fenstermacher, J. D., and Rapoport, S. I. In: Handbook of Physiology. The Cardiovascular System. Microcirculation. Bethesda, Md.: Am. Physiol. Soc., sect. 2, Vol. IV, pt. 2, chapt. 21, p. 969-1000, 1984; Fenstermacher, J. D. In: Implications of Blood-Brain Barrier and Its Manipulation. Basic Science Aspects. Ed. by Neuwelt, E., New York: Plenum, Vol. 1, Chapt. 6, pp. 132-55, 1988]

[2] = cited from earlier work; for lipophilicity and blood-brain barrier permeability compared with FIAU: compared with FIAU (FAIU [sic]), Iwashina et al. 1988
HSV1-TK [3] = molecular target: T1, HSV1-TK (Human alphaherpesvirus 1 strain 17, UniProt P0DTH5); assay: Accumulation of radiolabelled marker substrates in RG2TK+ transduced and RG2 wild-type cells, normalized to TdR; type: cell-based, herpes simplex virus
T1 sequence (P0DTH5 whole entry): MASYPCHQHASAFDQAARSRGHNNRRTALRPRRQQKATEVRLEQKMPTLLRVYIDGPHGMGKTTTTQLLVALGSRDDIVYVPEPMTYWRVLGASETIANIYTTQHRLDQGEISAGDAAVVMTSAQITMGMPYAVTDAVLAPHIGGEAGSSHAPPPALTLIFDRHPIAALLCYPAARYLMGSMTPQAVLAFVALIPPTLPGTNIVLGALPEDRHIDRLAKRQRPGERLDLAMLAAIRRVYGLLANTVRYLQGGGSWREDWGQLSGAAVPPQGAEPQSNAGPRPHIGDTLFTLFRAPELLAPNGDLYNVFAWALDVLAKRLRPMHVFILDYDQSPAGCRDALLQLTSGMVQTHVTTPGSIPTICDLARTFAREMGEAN
Method: Source of radiolabelled "marker substrates". […] No carrier-added 5-[^123 I]-deoxyuridine (IUdR) was prepared by reacting 2-deoxyuridine (UdR) with carrier-free ^123 I-labelled sodium iodide in an iodogen coated reaction vial.
Comparison of "marker substrates" for identifying HSV1-tk gene expression in tissue culture. […] Each of these substrates were developed for or used as an anti-viral agent; they are phosphorylated by HSV1-TK and can be radiolabelled for noninvasive imaging.
Wild-type (nontransduced) RG2 cells were studied as a reference control. […] The cells were dislodged from the Petri dishes with a soft scraper, poured into 15 ml conical tubes, centrifuged and the medium aspirated. The tubes were cut to facilitate removing cells; they were blotted, placed in pre-weighed vials, weighed and prepared for counting. Samples were assayed for ^3 H- and ^14 C-radioactivity using a Packard B1600 TriCarb beta spectrometer using dual-channel and external standard splash and quench correction techniques. The medium was also counted before and following incubation. The data was expressed as a harvested cell-to-medium concentration ratio (dpm/g cells.div.dpm/ml medium).
(§1) Data analysis. […] These two related measures are useful to evaluate the intensity of the images (e.g., high "sensitivity") and the ability to differentiate between HSV1-TK and endogenous-TK in the images (e.g., high "selectivity"). The "selectivity" measure is not interpreted as a relative sensitivity (i.e., a value of 1 indicating equal sensitivity) of the substrate to HSV1-TK vs. endogenous-TK. […] They are intended for the direct comparison of substrates only.

HSV1-TK [4] = molecular target: T1, HSV1-TK; assay: Single 120 minute paired accumulation of FIAU and IUdR by RG2TK+ and RG2 cells; type: cell-based, herpes simplex virus; settings: Data from FIG. 6A
Method: The processing of cells and incubation medium was the same as that described above. A portion of the harvested cells was also processed for acid-insoluble (10% TCA) radioactivity. Decay corrected ^123 I-radioactivity was measured in a Packard AutoGamma 5550 Spectrometer. Samples were stored for 1 week to allow for ^123 I decay (12 half lives), and recounted afterwards in the Packard B1600 TriCarb beta spectrometer to determine ^3 H- and ^14 C-radioactivity.
All radioactivity measurements were expressed as a percent of administered dose per gram of tissue or per unit volume of fluid as described above.
as §1

RG2TK+ and RG2 tumors = assay: Tissue sampling of FIAU- and IUdR-derived radioactivity in i.c. and s.c. RG2TK+ and RG2 tumors; type: in vivo, rat; settings: 24 h; for Sensitivity* (uptake in RG2TK+ tumor - uptake in RG2 tumor)/(HSV1TK mRNA/S28 RNA IOD in RG2TK+ cells): percent dose per gram
Method: Animal preparation and tumor inoculation Two male Fisher 344 rats weighing 250±20 g were anesthetized with a gas mixture consisting of 2% Isoflurane, 70% nitrous oxide and 30% oxygen. A 2% lidocaine gel was applied to the ears and the head was fixed with a stereotaxic device. After midline scalp incision, a burr hole was made through the skull 1 mm posterior and 3 mm lateral to the bregma. The tumor cell suspensions were aspirated into a 50 μl gas tight Hamilton syringe (Ga. 25) and attached to a stereotaxic device. The syringe needle was then inserted 6 mm deep into the caudate nucleus and the cell suspension (10^5 cells in 10 μl) was slowly injected over 2 minutes. RG2TK+ cells were injected into the left hemisphere, and RG2 cells were injected into the right hemisphere. Bone wax was applied to cover the skull defect and the scalp was closed with 4.0 silk suture. Subcutaneous inoculations (10^6 cells in 50 μl) were also performed (RG2TK+ cells into the left flank and RG2 cells into the right flank). After the procedure, the animals were marked and placed in standard cages with water and Rodent LabChow #5001 (Purina Mills, Inc.) ad libitum. Comparison of different "marker substrates" for identifying HSV1-TK expression in animals After 10 days of tumor growth, both animals received i.v. injections of [^123 I]-IUdR (400 uCi) and [^14 C]-FIAU (10 uCi). Radioactivity was allowed to clear from the body over 24 hours to reduce tissue background activity, predominantly due to radiolabelled iodide, the major metabolite of [^123 I]-IUdR. [Tjuvajev, J. G., Muraki, A., Ginos, J., Berk, J., Koutcher, J., Ballon, D., Beattie, B., Finn, R., and Biasberg, R., J. Nucl. Med., 34: 1152-62, 1993; Tjuvajev, J. G., Macapinlac, H. A., Daghighian, F., Scott, A. M., ginos, J. Z., Finn, R. D., Kothari, P., Desai, R., Zhang, Z., Beattie, B., Graham, M., Larson, S., and Blasberg, R. G., J. Nucl. Med., 35: 1407-17, 1994] The rats were killed at 24 hours under anesthesia; samples of tumor and adjacent tissue were disected and weighed, blood and plasma were obtained, and radioactivity was measured. Decay corrected ^123 I-radioactivity was assayed in a Packard AutoGamma 5550 Spectrometer; samples were stored in a refrigerator for 1 week to allow for ^123 I decay (>12 half lives) and ^14 C-radioactivity was measured in a Packard B1600 TriCarb beta spectrometer using external standard quench correction. Sample radioactivity was expressed as a percent of administered dose per gram of tissue of per unit volume of fluid.

[5] = log P values published by Xu, et al.

logP (physchem) | PS* [1] | PS+ [1] | Compound | further results
-1.52 | 0.03 | 0.03 | O=c1[nH]c(=O)n([C@H]2C[C@H](O)[C@@H](CO)O2)cc1F [5-FUdR] | Log P+ ([2]; octanol/water): -1.51
– | – | 0.31 | CCc1cn([C@@H]2O[C@H](CO)[C@@H](O)[C@@H]2F)c(=O)[nH]c1=O [FEAU, 2'-fluoro-5-ethyl-1-β-D-arabinofuranosyl-uracil] | lipophilicity and blood-brain barrier permeability compared with FIAU [2]: higher lipophilicity and better permeability through the blood-brain barrier
-1.09 | 0.08 | – | O=c1[nH]c(=O)n([C@@H]2O[C@H](CO)[C@@H](O)[C@@H]2F)cc1F [FFAU, 2'-fluoro-5-fluoro-1-β-D-arabinofuranosyl-uracil] | –
– | 0.02 | – | O=c1[nH]c(=O)n([C@@H]2O[C@H](CO)[C@@H](O)[C@H]2F)cc1F [FFRU] | –
– | 0.45 | – | O=c1[nH]c(=O)n([C@@H]2O[C@H](CO)[C@@H](O)[C@H]2F)cc1I [FIRU, 2'-fluoro-5-iodo-1-β-D-ribofuranosyl-uracil] | –
1.21 | 13.03 | – | O=c1[nH]c(=O)n([C@@H]2O[C@H](CO)[C@@H](O)[C@H]2F)cc1C=CI [FIVRU, 2'-fluoro-5-iodovinyl-1-β-D-ribofuranosyl-uracil] | lipophilicity and blood-brain barrier permeability compared with FIAU [2]: higher lipophilicity and better permeability through the blood-brain barrier

Continued, compound first:

Compound | logP (physchem) | PS* [1] | PS+ [1] | further results
CCc1cn([C@@H]2O[C@H](CO)[C@@H](O)[C@H]2F)c(=O)[nH]c1=O [FERU, 5-ethyl-2'-fluoro-1-β-D-ribofuranosyl-uracil] | – | – | – | lipophilicity and blood-brain barrier permeability compared with FIAU [2]: higher lipophilicity and better permeability through the blood-brain barrier
O=c1[nH]c(=O)n([C@@H]2O[C@H](CO)[C@@H](O)[C@@H]2F)cc1C=CI [FIVAU, 2'-fluoro-5-iodovinyl-1-β-D-arabinofuranosyl-uracil] | – | – | – | lipophilicity and blood-brain barrier permeability compared with FIAU [2]: higher lipophilicity and better permeability through the blood-brain barrier
Cc1cn([C@H]2C[C@H](O)[C@@H](CO)O2)c(=O)[nH]c1=O [TdR, thymidine] | -0.8 | – | – | Log P+ ([2]; octanol/water): -1.12
O=c1[nH]c(=O)n([C@H]2C[C@H](O)[C@@H](CO)O2)cc1/C=C/I [5-IVdU] | – | 10.29 | – | Log P* (physchem): 1.10
CC(C)(N)C(=O)O [AIB] | -2.48 | – | 0.00052 | –
O=c1ccn([C@H]2C[C@H](O)[C@@H](CO)O2)c(=O)[nH]1 [UdR, 2-deoxyuridine] | -0.131 | 0.05 | 0.03 | Log P+ [2, 5]: -1.48
O=c1[nH]c(=O)n([C@H]2C[C@H](O)[C@@H](CO)O2)cc1I [IUdR, 5-iodo-2'-deoxy-uridine] | -0.089 | 0.11 | 0.14 | Selectivity+ Sensitivity*/(substrate/TdR) for RG2 (HSV1-TK [3]; Data from FIG. 5): 0.006; Sensitivity* Δ(substrate/TdR)/Δ(HSV1TK mRNA/S28 RNA IOD) (HSV1-TK [3]; Data from FIG. 5): 0.0029; accumulation in bulk RG2TK+ cells relative to wild-type RG2 cells (HSV1-TK [3]; normalized to TdR, FIGS. 4 and 5B): 1.2 fold; Selectivity+ Sensitivity*/(substrate/TdR) for RG2 (HSV1-TK [4]): 0.002; Sensitivity* Δ(substrate/TdR)/Δ(HSV1TK mRNA/S28 RNA IOD) (HSV1-TK [4]): 0.0011; Selectivity+ Sensitivity*/(uptake in RG2 tumor) (RG2TK+ and RG2 tumors; RG2TK+/RG2 i.c. tumors): 0.009; Sensitivity* (uptake in RG2TK+ tumor - uptake in RG2 tumor)/(HSV1TK mRNA/S28 RNA IOD in RG2TK+ cells) (RG2TK+ and RG2 tumors; RG2TK+/RG2 i.c. tumors): 0.0001; Selectivity+ Sensitivity*/(uptake in RG2 tumor) (RG2TK+ and RG2 tumors; RG2TK+/RG2 s.c. tumors): 0.020; Sensitivity* (uptake in RG2TK+ tumor - uptake in RG2 tumor)/(HSV1TK mRNA/S28 RNA IOD in RG2TK+ cells) (RG2TK+ and RG2 tumors; RG2TK+/RG2 s.c. tumors): 0.0007; Log P+ [2, 5]: -0.76
O=C(O)CN(CCN(CC(=O)O)CC(=O)O)CCN(CC(=O)O)CC(=O)O [DTPA] | -3.89 | – | 0.00009 | –
